What was measured:
[1] = Study on stability of Crystal form I, II and III (influencing factors; character, moisture content, relevant substances by HPLC, XRPD); assay type: physicochemical; details: for Increase of moisture content: 10 days vs Day 0; for Stability of the samples (conclusion): influencing factor conditions (high temperature, high moisture, light)
Protocol: The samples were tested for character, relevant substances, moisture content, XRPD pattern, etc. […] The samples were tested for relevant substances, content, character, moisture content, XRPD pattern, etc. During the study, the uncovered experimental samples were kept in cultured dishes in the air. […] During the study, the uncovered experimental samples were kept in cultured dishes in the air. […] With respect to relevant substances, in accordance with High Performance Liquid Chromatography in Appendix V D in Pharmacopoeia of the People's Republic of China (2010), the samples were determined by area normalization method. Instrument: High Performance Liquid Chromatographic Instrument (Agilent 1200/1260 series) Chromatographic column: chromatographic column using octylsilane chemically bonded silica as filler (HC-C8, 4.6×250 mm, 5 μm) Column temperature: 30° C. Detection wavelength: 230 nm Mobile phase: mobile phase consisting of 0.03 mol/L diammonium hydrogen phosphate/0.03 mol/L sodium perchlorate solution-acetonitrile, and reversed-phase gradient elution was employed. Flow rate: 1.0 mL/min Injection volume: 10 μL Method for determining moisture content: the moisture content was determined in accordance with First Method for Determining Moisture Content B (Coulometric Titration) in Appendix VIII M in Pharmacopoeia of the People's Republic of China (2010).

[2] = Comparison of stability between crystal forms and amorphous form, 60° C. uncovered, relevant substances by HPLC; assay type: physicochemical; details: for Change in total relevant substances (conclusion): 60° C. uncovered, 5 days and 10 days
Protocol: Instrument: High Performance Liquid Chromatographic Instrument (Agilent 1260 series) Chromatographic column: chromatographic column using octylsilane chemically bonded silica as filler (HC-C8, 4.6×250 mm, 5 μm) Column temperature: 30° C. Detection wavelength: 230 nm Mobile phase: Mobile phase consisting of 0.06 mol/L sodium dihydrogen phosphate/0.06 mol/L sodium perchlorate solution-acetonitrile, and reversed-phase gradient elution was employed. Flow rate: 1.0 mL/min Injection volume: 10 μL

[3] = Evaluation on pharmacokinetics in SD rats, intragastric administration; assay type: in vivo; details: 5 mg/kg; for AUC0-t / AUCinf / Cmax (maximum blood concentration) / T1/2 (drug elimination half-life) / Tmax (time to maximum blood concentration): suspension in water
Protocol: An amorphous form of a compound of Formula (I), the preparation method of which could be found in the particular Examples as disclosed in the international patent application (Publication No. WO 2012027960 A1).
Test animal: SD rats, male, weighed 190-250 g, 6 rats for each crystal form, purchased from Beijing Vital River Laboratory Animal Technology Co., Ltd.
Administration route: intragastric administration, at an administration dose of 5 mg/kg, and an administration volume of 10 mL/kg.
Blood collection: whole blood (about 100 μL) was collected from tail vein 10 min, 30 min, 1 h, 2 h, 4 h, 6 h, 8 h, and 24 h after administration, and added to K2EDTA-containing anticoagulation tubes. The whole blood sample was centrifuged for 6 min at 4° C., 8000 rpm in a high speed centrifuge, and plasma was separated. Plasma needed to be prepared within 30 min after blood collection, and stored at −80° C. in a refrigerator.
Plasma sample analysis: the plasma samples were analyzed by protein precipitation: to plasma (20 μL), an internal standard Gefitinib (200 μL, 50 ng/mL acetonitrile solution) was added; the resultant mixture was vortexed at 500 rpm for 5 min, and centrifuged at 4000 rpm for 20 min in a high speed centrifuge; to the supernatant (100 μL), water (100 μL) was added; the resultant mixture was mixed homogeneously under vortexing and analyzed by LC-MS/MS for blood concentration.
Calculation for PK parameters: PK parameters were calculated by using Pharsight Phoenix 6.2 software.

[4] = 10 days, 40° C./RH75% uncovered
[5] = influencing factor condition for 10 days

SMILES: C=CC(=O)Nc1cc2c(Nc3ccc(F)c(Cl)c3)ncnc2cc1OCC1CC2(CCN(C)CC2)C1 [Crystal form I, N-(4-((3-chloro-4-fluorophenyl)amino)-7-((7-methyl-7-azaspiro[3.5]nonan-2-yl)methoxy)quinazolin-6-yl)acrylamide]
- Character ([1]; 0 day): light yellow
- Crystal form ([1]; 0 day): crystal-
- Moisture content ([1]; 0 day): 5.0%
- Relevant substance ([1]; 0 day): 0.78%
- Change in impurities ([1]; 60° C.-uncovered, UV light, 10 days): increased to some extent
- Character ([1]; 5 days, 40° C./RH75% covered): light yellow
- Crystal form ([1]; 5 days, 40° C./RH75% covered): the same
- Moisture content ([1]; 5 days, 40° C./RH75% covered): 5.1%
- Relevant substance ([1]; 5 days, 40° C./RH75% covered): 0.74%
- Character ([1]; 5 days, 40° C./RH75% uncovered): light yellow
- Crystal form ([1]; 5 days, 40° C./RH75% uncovered): the same
- Moisture content ([1]; 5 days, 40° C./RH75% uncovered): 5.4%
- Relevant substance ([1]; 5 days, 40° C./RH75% uncovered): 0.76%
- Character ([1]; 5 days, 60° C. covered): light yellow
- Crystal form ([1]; 5 days, 60° C. covered): the same
- Moisture content ([1]; 5 days, 60° C. covered): 5.0%
- Relevant substance ([1]; 5 days, 60° C. covered): 0.75%
- Character ([1]; 5 days, 60° C. uncovered): light yellow
- Crystal form ([1]; 5 days, 60° C. uncovered): the same
- Moisture content ([1]; 5 days, 60° C. uncovered): 4.9%
- Relevant substance ([1]; 5 days, 60° C. uncovered): 1.3%
- Character ([1]; 5 days, RH-75%): light yellow
- Crystal form ([1]; 5 days, RH-75%): the same
- Moisture content ([1]; 5 days, RH-75%): 5.5%
- Relevant substance ([1]; 5 days, RH-75%): 0.78%
- Character ([1]; 5 days, RH-92.5%): light yellow
- Crystal form ([1]; 5 days, RH-92.5%): the same
- Moisture content ([1]; 5 days, RH-92.5%): 5.5%
- Relevant substance ([1]; 5 days, RH-92.5%): 0.78%
- Character ([1]; 5 days, visible light): light yellow
- Crystal form ([1]; 5 days, visible light): the same
- Moisture content ([1]; 5 days, visible light): 5.1%
- Relevant substance ([1]; 5 days, visible light): 0.74%
- Character ([1]; 10 days, 40° C./RH75% covered): light yellow
- Crystal form ([1]; 10 days, 40° C./RH75% covered): the same
- Moisture content ([1]; 10 days, 40° C./RH75% covered): 4.9%
- Relevant substance ([1]; 10 days, 40° C./RH75% covered): 0.73%
- Character [1, 4]: light yellow
- Crystal form [1, 4]: the same
- Moisture content [1, 4]: 5.2%
- Relevant substance [1, 4]: 0.79%
- Character ([1]; 10 days, 60° C. covered): light yellow
- Crystal form ([1]; 10 days, 60° C. covered): the same
- Moisture content ([1]; 10 days, 60° C. covered): 4.8%
- Relevant substance ([1]; 10 days, 60° C. covered): 0.78%
- Character ([1]; 10 days, 60° C. uncovered): light yellow
- Crystal form ([1]; 10 days, 60° C. uncovered): the same
- Moisture content ([1]; 10 days, 60° C. uncovered): 4.6%
- Relevant substance ([1]; 10 days, 60° C. uncovered): 1.4%
- Character ([1]; 10 days, RH-75%): light yellow
- Crystal form ([1]; 10 days, RH-75%): the same
- Moisture content ([1]; 10 days, RH-75%): 5.7%
- Relevant substance ([1]; 10 days, RH-75%): 0.70%
- Character ([1]; 10 days, RH-92.5%): light yellow
- Crystal form ([1]; 10 days, RH-92.5%): the same
- Moisture content ([1]; 10 days, RH-92.5%): 5.8%
- Relevant substance ([1]; 10 days, RH-92.5%): 0.79%
- Character ([1]; 10 days, UV light): light yellow
- Crystal form ([1]; 10 days, UV light): the same
- Moisture content ([1]; 10 days, UV light): 5.2%
- Relevant substance ([1]; 10 days, UV light): 0.89%
- Increase of moisture content ([1]; high moisture RH-75%): 0.7%
- Increase of moisture content ([1]; high moisture RH-92.5%): 0.8%
- Stability of the samples (conclusion) ([1]; 10 days): relatively stable
- Total relevant substances ([2]; 0 day): 0.23%
- Change in total relevant substances (conclusion) [2]: little increase in total relevant substances
- Total relevant substances ([2]; 60° C. uncovered-5 days): 0.48%
- Total relevant substances ([2]; 60° C. uncovered-10 days): 0.47%
- Pharmacokinetic properties (conclusion) [3]: good pharmacokinetic properties
- AUC0-t [3]: 1404 ng·h/mL
- AUCinf [3]: 1414 ng·h/mL
- Cmax (maximum blood concentration) [3]: 134 ng/mL
- T1/2 (drug elimination half-life) [3]: 3.16 h
- Tmax (time to maximum blood concentration) [3]: 4 h

SMILES: C=CC(=O)Nc1cc2c(Nc3ccc(F)c(Cl)c3)ncnc2cc1OCC1CC2(CCN(C)CC2)C1 [Crystal form II, N-(4-((3-chloro-4-fluorophenyl)amino)-7-((7-methyl-7-azaspiro[3.5]nonan-2-yl)methoxy)quinazolin-6-yl)acrylamide]
- Character ([1]; 0 day): light yellow
- Crystal form ([1]; 0 day): Crystal
- Moisture content ([1]; 0 day): 3.5%
- Relevant substance ([1]; 0 day): 0.37%
- Character ([1]; 5 days, 40° C./RH75% covered): light yellow
- Crystal form ([1]; 5 days, 40° C./RH75% covered): the same
- Moisture content ([1]; 5 days, 40° C./RH75% covered): 3.6%
- Relevant substance ([1]; 5 days, 40° C./RH75% covered): 0.34%
- Character ([1]; 5 days, 40° C./RH75% uncovered): light yellow
- Crystal form ([1]; 5 days, 40° C./RH75% uncovered): the same
- Moisture content ([1]; 5 days, 40° C./RH75% uncovered): 3.7%
- Relevant substance ([1]; 5 days, 40° C./RH75% uncovered): 0.38%
- Character ([1]; 5 days, 60° C. covered): light yellow
- Crystal form ([1]; 5 days, 60° C. covered): the same
- Moisture content ([1]; 5 days, 60° C. covered): 3.6%
- Relevant substance ([1]; 5 days, 60° C. covered): 0.33%
- Character ([1]; 5 days, 60° C. uncovered): light yellow
- Crystal form ([1]; 5 days, 60° C. uncovered): the same
- Moisture content ([1]; 5 days, 60° C. uncovered): 3.6%
- Relevant substance ([1]; 5 days, 60° C. uncovered): 0.35%
- Character ([1]; 5 days, RH-75%): light yellow
- Crystal form ([1]; 5 days, RH-75%): the same
- Moisture content ([1]; 5 days, RH-75%): 3.6%
- Relevant substance ([1]; 5 days, RH-75%): 0.35%
- Character ([1]; 5 days, RH-92.5%): light yellow
- Crystal form ([1]; 5 days, RH-92.5%): the same
- Moisture content ([1]; 5 days, RH-92.5%): 3.7%
- Relevant substance ([1]; 5 days, RH-92.5%): 0.36%
- Character ([1]; 5 days, light): light yellow
- Crystal form ([1]; 5 days, light): the same
- Moisture content ([1]; 5 days, light): 3.7%
- Relevant substance ([1]; 5 days, light): 0.35%
- Character ([1]; 10 days, 40° C./RH75% covered): light yellow
- Crystal form ([1]; 10 days, 40° C./RH75% covered): the same
- Moisture content ([1]; 10 days, 40° C./RH75% covered): 3.6%
- Relevant substance ([1]; 10 days, 40° C./RH75% covered): 0.33%
- Character [1, 4]: light yellow
- Crystal form [1, 4]: the same
- Moisture content [1, 4]: 3.8%
- Relevant substance [1, 4]: 0.33%
- Character ([1]; 10 days, 60° C. covered): light yellow
- Crystal form ([1]; 10 days, 60° C. covered): the same
- Moisture content ([1]; 10 days, 60° C. covered): 3.7%
- Relevant substance ([1]; 10 days, 60° C. covered): 0.36%
- Character ([1]; 10 days, 60° C. uncovered): light yellow
- Crystal form ([1]; 10 days, 60° C. uncovered): the same
- Moisture content ([1]; 10 days, 60° C. uncovered): 3.7%
- Relevant substance ([1]; 10 days, 60° C. uncovered): 0.43%
- Character ([1]; 10 days, RH-75%): light yellow
- Crystal form ([1]; 10 days, RH-75%): the same
- Moisture content ([1]; 10 days, RH-75%): 3.7%
- Relevant substance ([1]; 10 days, RH-75%): 0.36%
- Character ([1]; 10 days, RH-92.5%): light yellow
- Crystal form ([1]; 10 days, RH-92.5%): the same
- Moisture content ([1]; 10 days, RH-92.5%): 3.7%
- Relevant substance ([1]; 10 days, RH-92.5%): 0.34%
- Character ([1]; 10 days, light): light yellow
- Crystal form ([1]; 10 days, light): the same
- Moisture content ([1]; 10 days, light): 3.7%
- Relevant substance ([1]; 10 days, light): 0.35%
- Change in Crystal form (XRPD pattern test) [1, 5]: no change
- Change in impurities [1, 5]: no significant change
- Stability of the samples (conclusion) ([1]; 10 days): relatively stable
- Total relevant substances ([2]; 0 day): 0.64%
- Change in total relevant substances (conclusion) [2]: little increase in total relevant substances
- Total relevant substances ([2]; 60° C. uncovered-5 days): 0.66%
- Total relevant substances ([2]; 60° C. uncovered-10 days): 0.70%
- Pharmacokinetic properties (conclusion) [3]: good pharmacokinetic properties
- AUC0-t [3]: 1536 ng·h/mL
- AUCinf [3]: 1591 ng·h/mL
- Cmax (maximum blood concentration) [3]: 135 ng/mL
- T1/2 (drug elimination half-life) [3]: 4.59 h
- Tmax (time to maximum blood concentration) [3]: 3 h

Source: patent US10689359B2, “Crystals of quinazoline derivative and preparation method therefor” (Xuanzhu Pharma Co., Ltd., priority 2015, dated 2020)
